The source of these data is patent US20150175585A1, “FUSED QUINONIC COMPOUNDS” (CENTRO ATLANTICO DEL MEDICAMENTO S.A (CEAMED, S.A.), priority 2012, published 2015).

SMILES strings stand for the structures. Where two headings read alike, the source gives them in different places.

As a reminder, the IC50 is the concentration that gives 50% inhibition.

One assay concerns K562 cells. As to the kind of experiment: K562-based MTT cell viability assay. The note with it: 48 h, read-out: Activity (IC50, reduction of cell viability). Also on record: species or system human. As to the method: (§1) Cell viability was assayed by measuring the mitochondrial reduction of the tetrazolium salt 3-(4,5-methyltiazol-2yl)-2,5diphenyl-tetrazolium bromide] (MTT) (Applichen; A2231,0010) (Mosmann T. J Immunol Methods. 1983 16; 65(1-2):55-63; Chuan Y-C et al 2010. Oncogene. 29 (10), 1531-1542. Cells were seeded in 96-well plates in medium supplemented with 10% FBS (Lonza Cat. No: 14-502F), 2 mM L-Glut (Lonza Cat. No: BE17-605E) and 100 U/ml PEST (Lonza Cat. No: DE17-605E) at a cell density of 5000-20000 cells/well. Cells were seeded at a density according to their exponential growth phase. Vehicle (0.05% DMSO) or drug were added to culture medium at the indicated concentrations (10 to 0.01 microM) during 48 h. Then, MTT (0.3 mg/ml) was added to cells following by incubation for 2-4 h at 37° C. in the dark. The medium was then discarded and the formazan precipitate was solubilized by addition of 20% SDS (Sigma; L-5750) in 0.02N HCl (Panreac; 131020.1611) for 12-16 h. The optical density was measured at 595 nm with the iMark Microplate Reader (BioRad, USA). Data was expressed as percent growth above the level in controls and the results in figures were plotted as means±SEM of each test point from 3 replicates.
(§2) Statistical analysis. The concentration of drug that provokes 50% reduction of cell viability (IC50) was determined by using non-linear regression analysis and data were fitted to a log concentration vs normalized response curve in GraphPad software v5 (San Diego, Calif.).
For orientation: Formazan colour is commonly taken as a measure of viable cells.

Assay [1] deals with STAT5 transcription (pSPI-GLE1-luc) in HEK-GHR cells. As to the kind of experiment: HEK-GHR STAT5 transcription assay (luciferase reporter, rhGH stimulated). Type of assay: cell-based, human. The note with it: compound 45 minutes before 50 nM rhGH, six hours, read-out: Activity (IC50, reduction of luciferase activity). The text has this:
Plasmids: The full-length GHR was subcloned into pcDNA1/ampicillin (Invitrogen) as described previously (Ross R J, Esposito N, Shen X Y, et al., Mol Endocrinol 1997, 11:265-73). The pSPI-GLE1 (serine protease inhibitor 2.1 GAS-like element 1)-luc reporter construct was generated by subcloning the Stat5-binding element from serine protease inhibitor gene together with a minimal thymidine kinase promoter into the pGL2 plasmid (Promega), which contains the firefly luciferase cDNA (Wood T J, Sliva D, Lobie P E, et al. J Biol Chem 1995, 270:9448-53).
Cell culture: HEK-GHR cell line was maintained in Dulbecco's Modified Eagle Medium (DMEM)/F12 supplemented with 10% fetal bovine serum (FBS) and 50 U/ml penicillin/50 U/ml streptomycin. The cells were maintained in a humidified incubator with 5% CO2 at 37° C. Cell culture reagents were obtained from PAA laboratories. The HEK-GHR cell line is a stable clone generated and kindly donated by Prof. Richard Ross (Clinical Sciences, Northern General Hospital, Sheffield, UK). Briefly, HEK-GHR cell line was generated in HEK 293 cells (human kidney embryonal cell line) by transfection with the calcium phosphate procedure of the GHR plasmid with pcDNA3/Neo (Invitrogen). Selection was made using G418 (400 ug/ml, Sigma) (Maamra M, Finidori J, Von Laue S, et al., J Biol Chem 1999, 274(21):14791-8).
Luciferase reporter assay: Transcription assays were performed in HEK-GHR. The HEK-GHR cells were co-transfected with Stat5 luciferase (pSPI-GLE1-luc) reporter vector together with a plasmid constitutively expressing beta-galactosidase by using Metafectene Pro as described by the manufacturer (Biontex Laboratories GmbH, Munich, Germany). Following transfection, HEK-GHR cells were serum-starved for 20 h. Cells were then treated with vehicle (0.1% DMSO) or the indicated compound for 45 minutes prior to the addition of 50 nM recombinant human Growth Hormone (rhGH) (Norditropin, Novo Nordisk) to the medium. Six hours following rhGH addition, cells were harvested with Passive Lysis Buffer (Promega), and levels of luciferase were measured using Luciferase Assay System as described by the manufacturer (Promega). The Galacto-Light Plus System (Applied Biosystems) was used to measure beta-galactosidase activity.
Statistical analysis. The concentration of drug that provokes 50% reduction of luciferase activity (IC50) was determined by using non-linear regression analysis and data were fitted to a log concentration vs normalized response curve in GraphPad software v5 (San Diego, Calif.).
(In general: A reporter such as luciferase makes a cellular process visible.)

A further assay concerns HEL cells. As to the kind of experiment: HEL-based MTT cell viability assay. More on the design: species or system human. The note with it: 48 h, read-out: Activity (IC50, reduction of cell viability). As to the method: as §1, §2
Another assay concerns STAT5. Nature of the assay: STAT5 phosphorylation western blot assay. It counts as cell-based, human. The note with it: 10 microM, HEL or K562 cells (table does not say which). As to the method:
(§3) The Human Erythroleukemia cell line HEL and the human Chronic Myeloid Leukemia cell line K562 were cultured in RPM I 1640 medium containing 10% fetal bovine serum (FBS) and 50 U/ml penicillin/50 U/ml streptomycin at 37° C. in a 5% CO2 humidified atmosphere to a density of 300.000 viable cells/mL in presence of WP1066 (positive control of phosphorylation inhibition) (Verstovsek et al., 2008) or CM-363 at concentrations of 1, 5 and 10 μM. Cell culture reagents were all obtained from BioWhittaker® (Lonza, Verniers, Belgium). Cell growth and viability was determined by propidium iodide (fluorescent dye) exclusion method using the Accuchip 4× Counting Kit and the ADAM automatic cell counter (Digital-Bio, NanoEntek, Ic., Washington St, Mass., USA).As a control of unspecific phosphorylation, some cells in each experiment were exposed to vehicle (negative control of phosphorylation inhibition) (0.1% DMSO).
(§4) For total protein extraction, cells were scraped with RIPA 1× lysis buffer (25 mM Tris-HCl pH 7.6, 150 mM NaCl, 1% NP-40, 1% sodium deoxycholate, 0.1% SDS, no. 89900, Thermo Scientific, Rockford, Ill., USA) supplemented with 1× protease and 1× phosphatase inhibitor cocktails (100× Halt™ Protease Inhibitor Cocktail, no. 87786 and 100× Halt Phosphatase Inhibitor Cocktail, no. 78420, both from Thermo Scientific, Rockford, Ill., USA). An aliquot of each extract was preserved for protein quantification by bicinchoninic acid assay (Pierce® BCA Protein Assay Kit, no. 23225, Thermo Scientific, Rockford, Ill., USA).
(§5) Proteins were solubilized in sample buffer containing 0.0625 M Tris-HCl, pH 6.8, 2.3% (wt/vol) SDS, 10% (vol/vol) glycerol, 5% (vol/vol) f3-mercaptoethanol, and 0.001% (wt/vol) bromophenol blue and boiled at 95° C. for 5 min. Equal amounts (50 μg) of each sample were electrophoresed on 8-10% sodium dodecyl sulfate-polyacrylamide gel electrophoresis (SDS-PAGE) and transferred to nitrocellulose membranes (iBlot® Gel Transfer Stacks, Nitrocellulose, no. IB4010-02, Invitrogen, Barcelona, Spain) as described previously (Fernandez, L, et al., Endocrinology, 13, 1815-1824, 1998; B. Guerra et al., J. Neurochem, 91, 99-109, 2004; B. Guerra et al., J. Appl. Physiol., 102, 1786-1792, 2007; B. Guerra et al., J. Appl. Physiol., 111, 715-725, 2011). The nitrocellulose membranes were then removed from the iBlot® Dry GelTransfer Device (no. IB1001EU, Invitrogen, Barcelona, Spain) and placed in a Ponceau S staining solution (0.5% Ponceau S and 1% glacial acetic acid in water) to verify equal loading of protein in the control and treated samples. After the membranes were stained for 5 min, they were rinsed for 2 min and examined. Equal loading of protein was verified, and the membranes were rinsed for an additional 10 min and immunoscreened. Membranes were blocked with 5% blotting grade blocker nonfat dry milk in Tris Buffered Saline with 0.05% Tween 20 (TBST; blotto-blocking buffer) for at least […]) at room temperature. They were washed thrice in TBS with 0.1% Tween 20 (TBST-0.1). Next, the membranes were incubated over night at 4° C. with the appropriate anti-phospho-antibodies (described below) all diluted (1:1000) in 1% bovine serum albumin (BSA)-1% blotto in TBST (BSA-blotto blocking buffer). […] Membranes were stripped of bound antibodies by incubation in stripping buffer (Restore™ Western Blot Stripping Buffer, no. 21059, Thermo Scientific, Rockford, Ill., USA) at room temperature for 30 min with agitation. Membranes were washed for 3×10 min in TBST-0.1, blocked with blotto-blocking buffer for at least 1 h and re-probed with the corresponding anti-total kinase antibodies (described below) all diluted (1:1000) in blotto-blocking buffer. […]
(Immunoblotting shows a protein as a band on a membrane.)

A further assay concerns JAK2. Nature of the assay: JAK2 phosphorylation western blot assay. Type of assay: cell-based, human. The note with it: 10 microM, HEL or K562 cells (table does not say which). As to the method: as §3, §4, §5

Turning to `O=C1CCCC2=C1C(c1ccc(Cl)cc1)C1=C(N2)C(=O)c2ccccc2C1=O` (stereo not drawn) [Compound 1, 12-(4-chlorophenyl)-3,4-dihydrobenzo[b]acridine-1,6,11(2H,5H,12H)-trione], the IC50 is < 10 µM with K562 cells (Homo sapiens), < 5 µM in assay [1] (Homo sapiens) and < 3 µM in the assay with HEL cells (Homo sapiens).
Taken in the same sequence, the figures for `N#Cc1ccc(C2C3=C(CCCC3=O)NC3=C2C(=O)c2ccccc2C3=O)cc1` (stereo not drawn) [Compound 2, 4-(1,6,11-trioxo-1,2,3,4,5,6,11,12-octahydrobenzo[b]acridin-12-yl)benzonitrile] were < 1 µM, < 1 µM and < 3 µM.
Taken in the same sequence, the figures for `CC1(C)CC(=O)C2=C(C1)OC1=C(C(=O)c3ccccc3C1=O)C2c1ccc2c(c1)OCO2` (stereo not drawn) [Compound 16, 12-(benzo[d][1,3]dioxol-5-yl)-3,3-dimethyl-3,4-dihydro-1H-benzo[b]xanthene-1,6,11(2H,12H)-trione] were < 3 µM, < 5 µM and < 3 µM.
With `O=C1CCCC2=C1C(c1ccc3c(c1)OCO3)C1=C(N2)C(=O)c2ccccc2C1=O` (stereo not drawn) [Compound 18], in the assay on STAT5, the “Activity (inhibition of STAT5 phosphorylation)” value was “+ (+represents an inhibition at 10 microM > 50%)”. For the same compound, the IC50 in the assay on K562 cells is < 10 µM. For the same compound, the “Activity (inhibition of JAK2 phosphorylation)” value in the assay with JAK2 is “++ (++represents an inhibition at 10 microM > 50%)”.
For the compound `CC1(C)CC(=O)C2=C(C1)OC1=C(C(=O)c3ccccc3C1=O)C2c1ccco1` (stereo not drawn) [Compound 20, 12-(furan-2-yl)-3,3-dimethyl-3,4-dihydro-1H-benzo[b]xanthene-1,6,11(2H,12H)-trione], in the assay with STAT5, the “Activity (inhibition of STAT5 phosphorylation)” value was “++ (++represents an inhibition at 10 microM > 50%)”. Besides, the concentration for half-maximal inhibition (IC50) (in assay [1] (Homo sapiens); with HEL cells (Homo sapiens)) was < 1 µM in each case. The “Activity (inhibition of JAK2 phosphorylation)” value in the assay with JAK2 was “+++ (+++represents an inhibition at 10 microM > 75%)”.
`CC1(C)CC(=O)C2=C(C1)OC1=C(C(=O)c3ccccc3C1=O)C2c1ccoc1` (stereo not drawn) [Compound 21]: the “Activity (inhibition of STAT5 phosphorylation)” value in the assay on STAT5 is reported as “++ (++represents an inhibition at 10 microM > 50%)”. Besides, the IC50 is < 1 µM in assay [1] and < 3 µM in the assay on HEL cells. In the assay on JAK2, the “Activity (inhibition of JAK2 phosphorylation)” value is on record as “+ (+represents an inhibition at 10 microM > 30%)”.
The matching figures for `O=C1CCCC2=C1C(c1ccccc1Cl)C1=C(N2)C(=O)c2ccccc2C1=O` (stereo not drawn) [Compound 22]: “+++ (+++represents an inhibition at 10 microM > 75%)”, < 5 µM, < 3 µM and “++ (++represents an inhibition at 10 microM > 50%)”.
Regarding `O=C1CCCC2=C1C(c1ccoc1)C1=C(N2)C(=O)c2ccccc2C1=O` (stereo not drawn) [Compound 24], in the assay with STAT5, the “Activity (inhibition of STAT5 phosphorylation)” value is given as “+ (+represents an inhibition at 10 microM > 50%)”. Besides, the concentration for half-maximal inhibition (IC50) in assay [1] is < 5 µM; in the assay with HEL cells it was < 3 µM. The “Activity (inhibition of JAK2 phosphorylation)” value in the assay on JAK2 was “+++ (+++represents an inhibition at 10 microM > 75%)”.
Regarding `O=C1CCCC2=C1C(c1ccc(Br)cc1)C1=C(N2)C(=O)c2ccccc2C1=O` (stereo not drawn) [Compound 26, 12-(4-bromophenyl)-3,4-dihydrobenzo[b]acridine 1,6,11(2H,5H,12H)-trione], the “Activity (inhibition of STAT5 phosphorylation)” value in the assay with STAT5 was “+ (+represents an inhibition at 10 microM > 50%)”. Also, the IC50 with K562 cells (Homo sapiens) was < 1 µM; in assay [1] (Homo sapiens), < 5 µM; with HEL cells (Homo sapiens), < 10 µM.
For `O=C1CCCC2=C1C(c1cccc(Br)c1)C1=C(N2)C(=O)c2ccccc2C1=O` (stereo not drawn) [Compound 27], the IC50 with K562 cells is < 10 µM; in assay [1], < 5 µM; in the assay on HEL cells it was < 3 µM. Besides, the “Activity (inhibition of JAK2 phosphorylation)” value with JAK2 is given as “+ (+represents an inhibition at 10 microM > 30%)”.
